pIC50: −log10 of the molar value. Blank lines part the entries; values can stand above or below the compound they belong to.
Legend:
[1] = target: T1, Tyrosine-protein kinase BTK (Homo sapiens, UniProt Q06187); assay: Inhibition of N-terminal His-tagged full length human recombinant BTK expressed in baculovirus infected Sf9 insect cells using Poly (4:1 Glu, Tyr) peptide substrate incubated for 60 mins by ADP-Glo luminescence assay
[2] = system: Ramos; assay: Antiproliferative activity against human Ramos cells after 48 hrs by CCK-8 assay; format: functional, cell-based
[3] = system: Raji; assay: Antiproliferative activity against human Raji cells after 48 hrs by CCK-8 assay
[4] = system: Ramos; assay: Induction of apoptosis in human Ramos cells assessed as viable cells at 10 uM after 48 hrs by Annexin V-FITC/propidium iodide staining based flow cytometry (reference value: 94.3%); format: functional; conditions: read-out: Activity
[5] = system: Ramos; assay: Induction of apoptosis in human Ramos cells assessed as early apoptotic cells at 10 uM after 48 hrs by Annexin V-FITC/propidium iodide staining based flow cytometry (reference value: 1.7%); format: functional
[6] = system: Ramos; assay: Induction of apoptosis in human Ramos cells assessed as late apoptotic cells at 10 uM after 48 hrs by Annexin V-FITC/propidium iodide staining based flow cytometry (reference value: 3%); format: functional
[7] = system: Ramos; assay: Induction of apoptosis in human Ramos cells assessed as necrotic cells at 10 uM after 48 hrs by Annexin V-FITC/propidium iodide staining based flow cytometry (reference value: 1%); format: functional
[8] = system: Ramos; assay: Cell cycle arrest in human Ramos cells assessed as accumulation at G0/G1 phase at 10 uM after 48 hrs by propidium iodide staining based flow cytometry (reference value: 56.19%); format: functional
[9] = system: Ramos; assay: Cell cycle arrest in human Ramos cells assessed as accumulation at S phase at 10 uM after 48 hrs by propidium iodide staining based flow cytometry (reference value: 42.23%); format: functional
[10] = system: Ramos; assay: Cell cycle arrest in human Ramos cells assessed as accumulation at G2/M phase at 10 uM after 48 hrs by propidium iodide staining based flow cytometry (reference value: 1.58%); format: functional
[11] = target: T1, Tyrosine-protein kinase BTK; assay: Irreversible inhibition of N-terminal His-tagged full length human recombinant BTK expressed in baculovirus infected Sf9 insect cells using Poly (4:1 Glu, Tyr) peptide substrate assessed as luminescence of compound linked enzyme at 5000 nmol/L incubated for 60 mins by ADP-Glo kinase assay (reference value: 9976)
[12] = system: PBMC; assay: Cytotoxicity against human PBMC assessed as change in cell morphology at <20 uM after 24 hrs by phase contrast microscopy; format: cell-based
[13] = system: Ramos; assay: Induction of apoptosis in human Ramos cells assessed as viable cells at 5 uM after 48 hrs by Annexin V-FITC/propidium iodide staining based flow cytometry (reference value: 94.3%); format: functional; conditions: read-out: Activity
[14] = system: Ramos; assay: Induction of apoptosis in human Ramos cells assessed as early apoptotic cells at 5 uM after 48 hrs by Annexin V-FITC/propidium iodide staining based flow cytometry (reference value: 1.7%); format: functional
[15] = system: Ramos; assay: Induction of apoptosis in human Ramos cells assessed as late apoptotic cells at 5 uM after 48 hrs by Annexin V-FITC/propidium iodide staining based flow cytometry (reference value: 3%); format: functional
[16] = system: Ramos; assay: Induction of apoptosis in human Ramos cells assessed as necrotic cells at 5 uM after 48 hrs by Annexin V-FITC/propidium iodide staining based flow cytometry (reference value: 1%); format: functional
[17] = system: Ramos; assay: Induction of apoptosis in human Ramos cells assessed as viable cells at 20 uM after 48 hrs by Annexin V-FITC/propidium iodide staining based flow cytometry (reference value: 94.3%); format: functional; conditions: read-out: Activity
[18] = system: Ramos; assay: Induction of apoptosis in human Ramos cells assessed as early apoptotic cells at 20 uM after 48 hrs by Annexin V-FITC/propidium iodide staining based flow cytometry (reference value: 1.7%); format: functional
[19] = system: Ramos; assay: Induction of apoptosis in human Ramos cells assessed as late apoptotic cells at 20 uM after 48 hrs by Annexin V-FITC/propidium iodide staining based flow cytometry (reference value: 3%); format: functional
[20] = system: Ramos; assay: Induction of apoptosis in human Ramos cells assessed as necrotic cells at 20 uM after 48 hrs by Annexin V-FITC/propidium iodide staining based flow cytometry (reference value: 1%); format: functional
[21] = system: Ramos; assay: Cell cycle arrest in human Ramos cells assessed as accumulation at G0/G1 phase at 20 uM after 48 hrs by propidium iodide staining based flow cytometry (reference value: 56.19%); format: functional
[22] = system: Ramos; assay: Cell cycle arrest in human Ramos cells assessed as accumulation at G2/M phase at 20 uM after 48 hrs by propidium iodide staining based flow cytometry (reference value: 1.58%); format: functional
[23] = system: Ramos; assay: Cell cycle arrest in human Ramos cells assessed as accumulation at S phase at 20 uM after 48 hrs by propidium iodide staining based flow cytometry (reference value: 42.23%); format: functional
[24] = system: Ramos; assay: Cell cycle arrest in human Ramos cells assessed as accumulation at G0/G1 phase at 5 uM after 48 hrs by propidium iodide staining based flow cytometry (reference value: 56.19%); format: functional
[25] = system: Ramos; assay: Cell cycle arrest in human Ramos cells assessed as accumulation at S phase at 5 uM after 48 hrs by propidium iodide staining based flow cytometry (reference value: 42.23%); format: functional
[26] = system: Ramos; assay: Cell cycle arrest in human Ramos cells assessed as accumulation at G2/M phase at 5 uM after 48 hrs by propidium iodide staining based flow cytometry (reference value: 1.58%); format: functional

T1 sequence (Q06187 whole entry): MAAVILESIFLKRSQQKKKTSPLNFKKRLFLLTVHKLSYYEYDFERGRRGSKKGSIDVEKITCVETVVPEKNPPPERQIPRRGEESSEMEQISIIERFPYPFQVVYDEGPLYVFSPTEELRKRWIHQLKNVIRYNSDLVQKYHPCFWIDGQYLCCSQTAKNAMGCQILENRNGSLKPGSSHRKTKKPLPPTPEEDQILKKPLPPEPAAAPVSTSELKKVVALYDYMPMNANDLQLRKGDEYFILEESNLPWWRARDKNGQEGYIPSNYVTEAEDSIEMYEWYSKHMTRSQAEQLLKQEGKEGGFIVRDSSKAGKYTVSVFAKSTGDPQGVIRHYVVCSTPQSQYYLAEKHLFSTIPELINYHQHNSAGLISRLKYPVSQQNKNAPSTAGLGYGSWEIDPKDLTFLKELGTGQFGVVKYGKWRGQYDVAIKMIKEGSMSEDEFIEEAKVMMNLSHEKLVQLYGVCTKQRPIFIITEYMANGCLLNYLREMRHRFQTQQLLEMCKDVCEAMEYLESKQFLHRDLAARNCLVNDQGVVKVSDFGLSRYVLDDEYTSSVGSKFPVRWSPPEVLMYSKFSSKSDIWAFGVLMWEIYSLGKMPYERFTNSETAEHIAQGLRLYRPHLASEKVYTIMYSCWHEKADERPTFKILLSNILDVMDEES

Structure (SMILES): C=CC(=O)Nc1cccc(Nc2nc(Nc3ccc(NC(=O)CN(CCOC)CCOC)c(OC)c3)ncc2Cl)c1
pIC50 [1]: < 7.00 | pIC50 [2]: 4.96 | pIC50 [3]: 4.68

Structure (SMILES): C=CC(=O)Nc1cccc(Nc2nc(Nc3ccc(OCC(=O)N(CCOC)CCOC)c(Cl)c3)ncc2Cl)c1
pIC50 [1]: < 7.00 | pIC50 [2]: 4.77 | pIC50 [3]: 4.71

Structure (SMILES): C=CC(=O)Nc1cccc(Nc2nc(Nc3ccc(N(CCOC)CCOC)cc3)ncc2Cl)c1
pIC50 [1]: 8.31 | pIC50 [2]: 4.89 | pIC50 [3]: 4.52

Structure (SMILES): C=CC(=O)Nc1cccc(Nc2nc(Nc3ccc(OCC(=O)N(CCOC)CCOC)cc3)ncc2Cl)c1
pIC50 [1]: 8.55 | pIC50 [2]: 4.74 | pIC50 [3]: 4.70

Structure (SMILES): C=CC(=O)Nc1cccc(Nc2nc(Nc3ccc(OCC(=O)N(CCOC)CCOC)cc3)ncc2F)c1
pIC50 [1]: 7.57 | pIC50 [2]: < 4.40 | pIC50 [3]: 4.44

Structure (SMILES): C=CC(=O)Nc1cccc(Nc2nc(Nc3ccc(OCC(=O)OCC4CCCO4)cc3)ncc2Cl)c1 (stereo not given)
pIC50 [1]: 9.64 | pIC50 [2]: < 4.40 | pIC50 [3]: 5.03

Structure (SMILES): C=CC(=O)N1CCC[C@@H](n2nc(-c3ccc(Oc4ccccc4)cc3)c3c(N)ncnc32)C1 [IBRUTINIB]
pIC50 [2]: 4.90 | viability at 10 µM [4]: 52% | Activity [5]: 37% | Activity [7]: 0.1% | Activity [8]: 46.35% | Activity [9]: 53.5% | Activity [10]: 0.15%

Structure (SMILES): C=CC(=O)Nc1cccc(Nc2nc(Nc3ccc(N(CCOC)CCOC)cc3)ncc2F)c1
pIC50 [1]: 8.15 | pIC50 [2]: 4.74 | pIC50 [3]: 4.62

The remaining compounds from weak to strong by pIC50 [2], led by results:

pIC50 [1]: 7.04 | pIC50 [2]: 4.45 | pIC50 [3]: 4.43
Structure (SMILES): C=CC(=O)Nc1cccc(Nc2nc(Nc3ccc(NC(=O)CN(CCOC)CCOC)cc3)ncc2F)c1

pIC50 [1]: 7.65 | pIC50 [2]: 4.65 | pIC50 [3]: 4.41
Structure (SMILES): C=CC(=O)Nc1cccc(Nc2nc(Nc3ccc(OCC4CCCO4)cc3)ncc2F)c1 (stereo not given)

pIC50 [2]: 4.68 | pIC50 [3]: 4.53
Structure (SMILES): C=CC(=O)Nc1cccc(Nc2nc(Nc3ccc(OCCOC)cc3)ncc2F)c1 [SPEBRUTINIB]
viability at 10 µM [4]: 54% | Activity [5]: 21.2% | Activity [6]: 20.4% | Activity [7]: 4.3% | Activity [8]: 31.02% | Activity [9]: 47.9% | Activity [10]: 20.91%

pIC50 [1]: 7.70 | pIC50 [2]: 4.71 | pIC50 [3]: 4.45
Structure (SMILES): C=CC(=O)Nc1cccc(Nc2nc(Nc3ccc(NC(=O)CN(CCOC)CCOC)c(C)c3)ncc2Cl)c1

pIC50 [1]: 7.65 | pIC50 [2]: 4.83 | pIC50 [3]: 4.70
Structure (SMILES): C=CC(=O)Nc1cccc(Nc2nc(Nc3ccc(NC(=O)CN(CCOC)CCOC)cc3)ncc2Cl)c1

pIC50 [1]: 7.92 | Activity [11]: 383 RLU | pIC50 [2]: 4.98 | pIC50 [3]: 4.72
Structure (SMILES): C=CC(=O)Nc1cccc(Nc2nc(Nc3ccc(OCC4CCCO4)cc3)ncc2Cl)c1 (stereo not given)
Activity [12]: Non-Toxic | viability at 10 µM [4]: 50% | Activity [5]: 12.6% | Activity [6]: 34.2% | Activity [7]: 1.2% | viability at 5 µM [13]: 50.1% | Activity [14]: 11% | Activity [15]: 27% | Activity [16]: 2.2% | viability at 20 µM [17]: 16.2% | Activity [18]: 26.4% | Activity [19]: 57.2% | Activity [20]: 0.1% | Activity [8]: 63% | Activity [9]: 37% | Activity [10]: 0% | Activity [21]: 70.75% | Activity [22]: 0.86% | Activity [23]: 28.39% | Activity [24]: 53.18% | Activity [25]: 46.82% | Activity [26]: 0%

Reference: ChEMBL document CHEMBL3992502, “Structural optimization of diphenylpyrimidine derivatives (DPPYs) as potent Bruton's tyrosine kinase (BTK) inhibitors with improved activity toward B leukemia cell lines” (Eur J Med Chem, 2017)
